Laboratory results taken from US20150126964A1, “DRUG DELIVERY ACROSS THE BLOOD-BRAIN BARRIER USING MAGNETICALLY HEATABLE ENTITIES” (CORPORATION DE L'ECOLE POLYTECHNIQUE DE MONTREAL, priority 2012, published 2015).
“And” between values parts separate entries of the source, which are not always exact repeats. Equal entries are not always repeated.

Test system: blood-brain barrier
Assay: Histological examination of blood-brain barrier leakage of Evans blue dye after external heating
Format: in vivo, mice
Conditions: one line per animal
From the text: Staining of the blood-brain barrier is a traditional method for evaluating blood-brain barrier leakage. Evans Blue dye, an exogenous tracer, is used to assess the integrity of the blood-brain barrier following a hyperthermic disruption. The dye molecules are able to easily diffuse through the fenestrated endothelial cells of all capillaries except those of the brain due to a functional blood-brain barrier. However, once the blood-brain barrier is compromised, Evans blue enters the brain and it fluoresces with excitation peaks at 470 and 540 nm and an emission peak at 680 nm. Histological staining techniques can therefore reflect the extent of blood-brain barrier leakage by studying the intensity of Evans blue dye in the brain.
Phase ii. The purpose of this part of the experiment was to examine the feasibility of hyperthermic disruption of the blood-brain barrier as well as its recovery period from thermal damage using Evans blue staining technique. Here, nine mice, each 6-8 weeks of age, were randomly divided into three identical groups. In contrast to the previous part, no holes were drilled into the exposed surface of the skull of these animals. In order to correlate temperature patterns with stains left from the Evans blue dye, the heating parameters for all groups were kept the same as was described in the first part of this experiment. […]

Diameter of BBB leakage of Evans blue (mm) (Group I Hyperthermic Disruption, 30 min heating near Bregma, sacrificed one hour after dye): 0 mm and 4.22 mm and 2.46 mm | Diameter of BBB leakage of Evans blue (mm) (Group II Recovery from Hyperthermia, dye injected 2 hours after 30 min thermal treatment): 0 mm and 0.62 mm and 1.98 mm
SMILES: Cc1cc(-c2ccc(/N=N/c3ccc4c(S(=O)(=O)O)cc(S(=O)(=O)O)c(N)c4c3O)c(C)c2)ccc1/N=N/c1ccc2c(S(=O)(=O)O)cc(S(=O)(=O)O)c(N)c2c1O [Evans blue]
